Assay results published in PMC10166615 (Bioorganic & Medicinal Chemistry, 2023).

Target: SARS-CoV-2 3CLpro (Severe acute respiratory syndrome coronavirus 2, UniProt P0DTD1)
Experiment: biochemical
[1] = read-out: SARS-CoV-2 3CLpro Inhibition (%)

For CC(C)(C)[C@H](NC(=O)C(F)(F)F)C(=O)N1C[C@@H]2CCC[C@@H]2[C@H]1C(=O)N[C@H](C#N)C[C@@H]1CCNC1=O [1a, (1S,3aR,6aS)-N-((S)-1-cyano-2-((S)-2-oxopyrrolidin-3-yl)ethyl)-2-((S)-3,3-dimethyl-2-(2,2,2-trifluoroacetamido)butanoyl)octahydrocyclopenta[c]pyrrole-1-carboxamide], which IC50 is on record?
Its IC50 is 18.1 ± 2.35 nM.

What about the inhibition at 0.02 µM [1] of the same molecule?
Its inhibition at 0.02 µM is 24%.

What about the inhibition at 0.1 µM [1] of the same molecule?
The inhibition at 0.1 µM was 82.5%.

What about the inhibition at 1 µM [1] of the same molecule?
Its inhibition at 1 µM is 88.9%.

And the inhibition at 10 µM [1]?
The inhibition at 10 µM was 88.3%.
